Experimental findings from ChEMBL document CHEMBL5537136 (J Med Chem, 2024) are described below.

The test system of series [1] is CT26. As to the kind of experiment: Antitumor activity against mouse CT26 cells implanted in Balb/c mouse assessed as increase in infiltration CD8 positive T cells in tumors at 25 mg/kg, IG measured after 14 days by flow cytometry. Format: functional, organism-based. The note with it: time 14.0 day.
The subject of series [2] is CT26. The series is described as follows: Antitumor activity in immunocompetent mouse CT26 cell bearing Balb/c mouse model assessed as reduction in Ki-67 protein expression level in tumor tissue at 6.25 to 25 mg/kg, IG treated twice a day measured after 14 days. The format is functional, organism-based. The note with it: dose lower 6.25 mg/kg, dose upper […], time 14.0 day.

A short description of series [3]: Oral bioavailability in ICR mouse at 10 mg/kg measured upto 24 hrs by LC-MS/MS analysis. The format is ADME, organism-based. The note with it: in vivo.
Series [4] is described as follows: Toxicity in Balb/c mouse bearing mouse CT26 cells assessed as morphological changes in lung at 6.25 to 25 mg/kg, IG measured after 14 days by hematoxylin and eosin staining based assay. The format is organism-based. The note with it: in vivo, po, 336 h, dose 6.25-25 mg/kg, time 14 day.
The nature of series [5]: Toxicity in Balb/c mouse bearing mouse CT26 cells assessed as morphological changes in heart at 6.25 to 25 mg/kg, IG measured after 14 days by hematoxylin and eosin staining based assay. Format: organism-based. The note with it: in vivo, po, 336 h, dose 6.25-25 mg/kg, time 14 day.
The nature of series [6]: MRT (0 to infinity) in ICR mouse at 10 mg/kg, IG measured upto 24 hrs by LC-MS/MS analysis. The format is ADME, organism-based. The note with it: in vivo, po.
Series [7] can be described thus: Half life in ICR mouse at 10 mg/kg, IG measured upto 24 hrs by LC-MS/MS analysis. The note with it: in vivo, po. The format is ADME, organism-based.
The nature of series [8]: Clearance in ICR mouse at 1 mg/kg, iv measured upto 24 hrs by LC-MS/MS analysis. The note with it: in vivo. The format is ADME, organism-based.
Series [9] addresses Protein mono-ADP-ribosyltransferase PARP14 (Homo sapiens, UniProt Q460N5). As to the kind of experiment: Inhibition of PARP14 (unknown origin) measured after 1 hr incubation by microplate reader assay.
For series [10], the target named is T1, Protein mono-ADP-ribosyltransferase TIPARP (Mus musculus) (UniProt Q8C1B2).
T1 sequence (whole entry): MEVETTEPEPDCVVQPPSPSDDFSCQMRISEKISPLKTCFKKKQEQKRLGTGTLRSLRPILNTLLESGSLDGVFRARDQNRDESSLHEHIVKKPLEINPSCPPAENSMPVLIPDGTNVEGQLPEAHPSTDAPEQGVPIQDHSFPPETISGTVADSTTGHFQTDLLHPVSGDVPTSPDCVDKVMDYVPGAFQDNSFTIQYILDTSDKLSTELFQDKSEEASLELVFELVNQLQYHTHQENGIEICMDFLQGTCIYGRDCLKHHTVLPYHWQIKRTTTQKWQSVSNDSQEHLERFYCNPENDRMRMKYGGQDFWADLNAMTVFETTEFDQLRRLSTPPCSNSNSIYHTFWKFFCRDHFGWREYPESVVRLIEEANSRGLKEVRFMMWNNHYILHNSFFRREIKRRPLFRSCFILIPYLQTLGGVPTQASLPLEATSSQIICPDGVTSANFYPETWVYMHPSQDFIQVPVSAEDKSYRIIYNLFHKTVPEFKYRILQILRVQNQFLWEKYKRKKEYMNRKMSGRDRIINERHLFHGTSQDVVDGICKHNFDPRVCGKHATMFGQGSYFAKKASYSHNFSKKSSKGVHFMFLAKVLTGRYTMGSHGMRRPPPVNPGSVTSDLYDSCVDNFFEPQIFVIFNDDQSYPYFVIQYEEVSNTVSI
As to the kind of experiment: Inhibition of PARP7 in mouse CT26 cells assessed as increase in STAT1 phosphorylation incubated for 3 days by Western blot analysis. Format: cell-based. The note with it: dose 0.14-4 µM, time 3.0 day.

For series [11], the system named is CT26. As to the kind of experiment: cells. The note with it: Mus musculus, CT26, 144 h.
For series [12], the system named is CT26. As to the kind of experiment: Antitumor activity against mouse CT26 cells implanted in immunodeficient Balb/c mouse assessed as inhibition of tumor growth at 25 mg/kg, IG twice daily measured after 10 days relative to control. Format: functional. The note with it: CT26, po, 240 h, time 10 day, read-out: TGI.
For series [13], the system named is CT26. As to the kind of experiment: Antitumor activity in immunocompetent mouse CT26 cell bearing Balb/c mouse model assessed as induction of IFN-beta mRNA expression in tumor tissue treated IG twice a day measured after 14 days by quantitative real-time PCR analysis. The note with it: dose lower 6.25 mg/kg, dose upper […], time 14.0 day. The format is functional.

The nature of series [14]: AUC (0 to infinity) in ICR mouse at 1 mg/kg, iv measured upto 24 hrs by LC-MS/MS analysis. The format is ADME, organism-based. The note with it: in vivo.
A short description of series [15]: Tmax in ICR mouse at 10 mg/kg, IG measured upto 24 hrs by LC-MS/MS analysis. The format is ADME, organism-based. The note with it: in vivo, po.
Series [16] deals with T2, Protein mono-ADP-ribosyltransferase PARP10 (Homo sapiens, UniProt Q53GL7).
T2 sequence (Q53GL7 whole entry): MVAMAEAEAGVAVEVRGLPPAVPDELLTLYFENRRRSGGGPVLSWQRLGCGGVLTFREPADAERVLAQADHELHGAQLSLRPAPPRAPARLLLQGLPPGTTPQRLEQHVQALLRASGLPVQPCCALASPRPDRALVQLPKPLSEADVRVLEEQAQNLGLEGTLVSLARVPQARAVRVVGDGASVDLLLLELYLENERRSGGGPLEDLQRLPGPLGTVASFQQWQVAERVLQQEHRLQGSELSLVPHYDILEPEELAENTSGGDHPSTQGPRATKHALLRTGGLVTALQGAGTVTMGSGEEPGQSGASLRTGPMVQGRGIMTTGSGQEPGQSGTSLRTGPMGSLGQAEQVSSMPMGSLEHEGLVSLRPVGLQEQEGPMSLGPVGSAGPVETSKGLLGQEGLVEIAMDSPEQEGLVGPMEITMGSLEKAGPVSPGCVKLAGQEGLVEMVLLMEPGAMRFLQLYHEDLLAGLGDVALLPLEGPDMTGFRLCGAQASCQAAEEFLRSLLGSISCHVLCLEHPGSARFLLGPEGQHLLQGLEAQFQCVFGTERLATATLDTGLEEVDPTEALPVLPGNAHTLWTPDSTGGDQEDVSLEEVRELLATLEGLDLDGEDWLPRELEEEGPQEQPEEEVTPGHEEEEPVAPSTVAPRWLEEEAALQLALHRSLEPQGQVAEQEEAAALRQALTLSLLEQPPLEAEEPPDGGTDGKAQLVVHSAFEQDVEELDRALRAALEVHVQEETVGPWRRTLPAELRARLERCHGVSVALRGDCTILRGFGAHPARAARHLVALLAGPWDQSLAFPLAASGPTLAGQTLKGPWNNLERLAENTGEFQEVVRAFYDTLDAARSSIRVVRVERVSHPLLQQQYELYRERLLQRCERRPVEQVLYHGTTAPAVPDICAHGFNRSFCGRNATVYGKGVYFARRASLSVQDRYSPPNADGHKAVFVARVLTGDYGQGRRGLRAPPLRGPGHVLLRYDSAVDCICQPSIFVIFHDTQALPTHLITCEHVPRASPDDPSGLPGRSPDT
The series is described as follows: Inhibition of PARP10 (unknown origin) measured after 1 hr incubation by microplate reader assay.

The nature of series [17]: Half life in ICR mouse at 1 mg/kg, iv measured upto 24 hrs by LC-MS/MS analysis. The format is ADME, organism-based. The note with it: in vivo.
The nature of series [18]: Acute toxicity in ICR mouse assessed as change in body weight at 500 mg/kg, po measured after 7 days. The format is organism-based. The note with it: in vivo, 168 h, time 7 day.

pIC50: −log10 of the molar value. Activity calls are given as the source filed them. The calls are words filed in the database; no cut-off is given here.

Chain of Protein mono-ADP-ribosyltransferase PARP14 (Q460N5 whole entry): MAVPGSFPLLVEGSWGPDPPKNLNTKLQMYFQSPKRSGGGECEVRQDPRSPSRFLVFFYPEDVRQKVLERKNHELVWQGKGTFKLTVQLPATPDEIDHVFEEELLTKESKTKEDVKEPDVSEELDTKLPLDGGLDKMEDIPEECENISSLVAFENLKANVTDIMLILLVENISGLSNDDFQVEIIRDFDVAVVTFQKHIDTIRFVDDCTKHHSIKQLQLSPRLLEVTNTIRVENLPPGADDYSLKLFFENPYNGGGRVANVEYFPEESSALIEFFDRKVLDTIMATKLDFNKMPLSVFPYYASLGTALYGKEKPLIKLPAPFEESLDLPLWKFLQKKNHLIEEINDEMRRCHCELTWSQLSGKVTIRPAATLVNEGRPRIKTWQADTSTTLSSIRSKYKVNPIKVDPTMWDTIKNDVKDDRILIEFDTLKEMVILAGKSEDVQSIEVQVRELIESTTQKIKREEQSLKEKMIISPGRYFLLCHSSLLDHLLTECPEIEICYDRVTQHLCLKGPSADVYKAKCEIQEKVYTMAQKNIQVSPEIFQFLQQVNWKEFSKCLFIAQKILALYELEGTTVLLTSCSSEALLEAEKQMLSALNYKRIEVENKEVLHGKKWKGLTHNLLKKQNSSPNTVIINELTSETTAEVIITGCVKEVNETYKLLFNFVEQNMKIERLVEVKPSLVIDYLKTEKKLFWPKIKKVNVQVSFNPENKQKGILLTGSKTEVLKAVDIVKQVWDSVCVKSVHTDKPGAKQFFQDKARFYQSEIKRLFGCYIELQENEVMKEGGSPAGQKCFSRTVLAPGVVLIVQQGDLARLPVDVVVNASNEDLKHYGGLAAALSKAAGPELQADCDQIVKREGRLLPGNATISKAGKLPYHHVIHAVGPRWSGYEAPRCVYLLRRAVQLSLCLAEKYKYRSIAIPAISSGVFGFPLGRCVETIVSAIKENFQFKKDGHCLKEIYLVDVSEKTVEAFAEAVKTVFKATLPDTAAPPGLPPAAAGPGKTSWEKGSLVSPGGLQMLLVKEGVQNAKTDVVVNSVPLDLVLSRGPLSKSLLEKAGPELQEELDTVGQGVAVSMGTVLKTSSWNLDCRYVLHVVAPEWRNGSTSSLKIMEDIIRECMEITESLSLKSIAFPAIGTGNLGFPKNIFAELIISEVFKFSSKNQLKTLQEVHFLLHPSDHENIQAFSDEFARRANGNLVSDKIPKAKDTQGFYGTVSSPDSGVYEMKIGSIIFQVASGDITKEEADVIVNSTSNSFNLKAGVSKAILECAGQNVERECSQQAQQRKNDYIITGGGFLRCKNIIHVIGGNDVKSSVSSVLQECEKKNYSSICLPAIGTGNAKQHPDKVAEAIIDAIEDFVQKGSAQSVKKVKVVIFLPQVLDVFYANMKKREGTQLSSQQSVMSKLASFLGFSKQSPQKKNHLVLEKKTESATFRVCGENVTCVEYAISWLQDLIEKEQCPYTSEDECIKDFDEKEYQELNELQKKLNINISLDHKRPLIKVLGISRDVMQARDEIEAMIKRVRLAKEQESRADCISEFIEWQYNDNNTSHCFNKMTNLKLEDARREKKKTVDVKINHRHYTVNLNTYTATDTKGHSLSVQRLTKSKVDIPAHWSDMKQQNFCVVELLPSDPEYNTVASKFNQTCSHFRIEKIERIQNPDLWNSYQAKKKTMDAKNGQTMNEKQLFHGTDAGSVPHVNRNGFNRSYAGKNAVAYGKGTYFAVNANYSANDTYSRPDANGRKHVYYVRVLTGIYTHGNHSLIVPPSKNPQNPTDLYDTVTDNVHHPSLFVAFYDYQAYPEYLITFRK

Take `C[C@@H](C(=O)N1CCN(c2ncc(C(F)(F)F)cn2)CC1)n1cc2cccc(C(N)=O)c2n1`: the result in the series with CT26 [1] and in the series with CT26 [2] was Active. Further, the bioavailability in series [3] came out at 94.6%. In addition, the Activity entry in series [4] is “Non-Toxic”; in [5], “Non-Toxic”; with CT26 [13], “Dose-Dependent Effect”; in [18] it was “Non-Toxic”. In addition, the MRT inf in [6] worked out at 2.52 h. Further, the figures for the half-life in [7] and in series [17] were 1.76 h and 1.22 h, respectively. The compound also showed a clearance in [8] of 9.62 mL/min/kg. For the same compound, the values for the pIC50 (in [9]; in the series with CT26 [11]; in [16]) were < 5.89, 4.44 and 6.42, respectively. In series [10], the inhibition result was “Dose-Dependent Effect”. Also, the inhibition in vivo at 25 mg/kg in the series with CT26 [12] turned out to be 4%. Also, in [14], the AUC(0-inf) turned out to be 1800 ng·h/mL. For the same compound, the Tmax in [15] is 0.5 h.
